PMC7534320 (Journal of Enzyme Inhibition and Medicinal Chemistry, 2020)
Converted amounts (≈) assume the structure as drawn. Where two headings read alike, the source gives them in different places.

What was measured:
P. mirabilis ATCC 12453 = experiment: Agar well diffusion technique; type: cell-based; settings: 25 mg/mL dissolved in methanol and filtered
E. faecalis ATTC 29212 = experiment: Agar well diffusion technique; type: cell-based; settings: 25 mg/mL dissolved in methanol and filtered
K. pneumoniae ATCC 31488 = experiment: Agar well diffusion technique; type: cell-based; settings: 25 mg/mL dissolved in methanol and filtered
S. aureus ATCC 25923 = experiment: Agar well diffusion technique; type: cell-based; settings: 25 mg/mL dissolved in methanol and filtered
[1] = test system: P. aereuginosa ATCC 27853; experiment: Agar well diffusion technique; type: cell-based; settings: 25 mg/mL dissolved in methanol and filtered
E. coli ATCC 25922 = experiment: Agar well diffusion technique; type: cell-based; settings: 25 mg/mL dissolved in methanol and filtered
C. difficile ATCC 9689 = experiment: Agar well diffusion technique; type: cell-based; settings: 25 mg/mL dissolved in methanol and filtered
C. krusei ATCC 14243 = experiment: Agar well diffusion technique; type: cell-based; settings: 25 mg/mL dissolved in methanol and filtered
S. pyrogenes ATCC 19615 = experiment: Agar well diffusion technique; type: cell-based; settings: 25 mg/mL dissolved in methanol and filtered
C. butyricum ATTC 860 = type: cell-based; settings: 25 mg/mL dissolved in methanol and filtered
[2] = PAMPA blood–brain barrier (BBB) permeability; type: in vitro ADME
Description: (§1) In vitro gastrointestinal (GIT) and blood–brain barrier (BBB) permeability was studied using the PAMPA model (Parallel Artificial Membrane Permeability Assay). The sandwich consists of two 96-well microfilter plates. The PAMPA system contains two chambers: the donor at the bottom and the acceptor chamber at the top. The chambers are separated by a 120-μm-thick microfilter disc coated with a 20% (w/v) dodecane solution of a lecithin mixture (Pion, Inc.). Before adding samples to the donor compartments, the samples were dissolved in DMSO. The donor solution was adjusted to pH ≈ 6.8 for GIT application and to pH ≈ 7.4 for BBB application using 0.5 M NaOH. The plates were combined and then incubated for 3 h for GIT model and 4 h for BBB model in a humidity-saturated atmosphere at the temperature set at 310 K. The apparent permeability coefficient (Papp) was calculated according to the following equation: Papp=−ln(1−CA/Cequilibrium)/S×(1/VD+1/VA)×t where VD – donor volume, VA – acceptor volume, Cequilibrium – equilibrium concentration Cequilibrium=CD×VD+ CA×VA/VD+VA, S – membrane area, t – incubation time (in seconds).
Compounds with high permeability have the Papp value at the level >4.0 × 10^−6 cm s^−1 [28].

[3] = test system: S. typhimurium ATCC 14028; experiment: Agar well diffusion technique; type: cell-based; settings: 25 mg/mL dissolved in methanol and filtered
[4] = PAMPA gastrointestinal (GIT) permeability; type: in vitro ADME
Description: as §1

C. albicans ATTC 10231 = experiment: Agar well diffusion technique; type: cell-based; settings: 25 mg/mL dissolved in methanol and filtered
B. subtillis ATCC 238557 = experiment: Agar well diffusion technique; type: cell-based; settings: 25 mg/mL dissolved in methanol and filtered
E. aerogenes ATCC 13048 = experiment: Agar well diffusion technique; type: cell-based; settings: 25 mg/mL dissolved in methanol and filtered
[5] = test system: L. monocytogenes ATCC 7644; experiment: Agar well diffusion technique; type: cell-based; settings: 25 mg/mL dissolved in methanol and filtered
[6] = Antioxidant activity, DPPH radical reaction; type: biochemical; settings: free substance; linear regression
Protocol: The antioxidant activity was evaluated using the DPPH radical reaction. The investigation of antioxidant properties was performed spectrophotometrically, according to Studzińska-Sroka’s modifications. […] 25.0 µL of DPPH solution was mixed with 175.0 µL of studied solutions in a 96-well plate, and then the plate was shaken and incubated in darkness for half an hour at room temperature. Subsequently, the absorbance (A) was measured at the wavelength set at 517 nm against the blank (the mixture of DPPH solution and methanol). The inhibition of the DPPH radical by the studied samples was calculated due to the following equation: A=Ao − Ai/Ao x 100% where Ao is the absorbance of the control sample, Ai is the absorbance of studied samples. Every determination was repeated six times. As a reference, vitamin C was used. IC50 values, which determine the concentration of the substance that inhibits the formation of DPPH by 50%, were determined by linear regression analysis.

[7] = piperine after incorporation into the cavity of β-cyclodextrin; cited from earlier work

SMILES	Inhibition zone (mm) – Agar well diffusion technique (P. mirabilis ATCC 12453) [mm]	Inhibition zone (mm) – Agar well diffusion technique (E. faecalis ATTC 29212) [mm]	Inhibition zone (mm) – Agar well diffusion technique (K. pneumoniae ATCC 31488) [mm]	Inhibition zone (mm) – Agar well diffusion technique (S. aureus ATCC 25923) [mm]	Inhibition zone (mm) – Agar well diffusion technique [1] [mm]	Inhibition zone (mm) – Agar well diffusion technique (E. coli ATCC 25922) [mm]	Inhibition zone (mm) – Agar well diffusion technique (C. difficile ATCC 9689) [mm]	Inhibition zone (mm) – Agar well diffusion technique (C. krusei ATCC 14243) [mm]	Inhibition zone (mm) – Agar well diffusion technique (S. pyrogenes ATCC 19615) [mm]	Inhibition zone (mm) – Agar well diffusion technique (C. butyricum ATTC 860) [mm]	Inhibition zone (mm) – Agar well diffusion technique [3] [mm]	Inhibition zone (mm) – Agar well diffusion technique (C. albicans ATTC 10231) [mm]	Inhibition zone (mm) – Agar well diffusion technique (B. subtillis ATCC 238557) [mm]	Inhibition zone (mm) – Agar well diffusion technique (E. aerogenes ATCC 13048) [mm]	Inhibition zone (mm) – Agar well diffusion technique [5] [mm]	IC50 DPPH [6] [mg/mL]	further results
COc1cc(/C=C/C(=O)CC(=O)/C=C/c2ccc(O)c(OC)c2)ccc1O [Curcumin, Diferuloylmethane]	3.0	10.5	2.5	4.0	2.5	3.0	6.5	2.0	5.0	5.5	5.5	4.5	8.5	2.5	5.0		permeability classification, BBB PAMPA ([2]; PAMPA): well permeable; Papp at 4 h ([2]; PAMPA, pH 7.4): 31.1 ×10⁻⁶ cm/s; permeability classification, GIT PAMPA [4]: well permeable; Papp at 3 h ([4]; pH 6.8): 3.46 ×10⁻⁶ cm/s
O=C(/C=C/C=C/c1ccc2c(c1)OCO2)N1CCCCC1 [Piperine, piperine]	1.0	9.0	2.0	3.0	1.5	2.0	3.5	2.5	2.5	5.5	1.5	2.5	7.0	1.0	5.0	38.945 (≈ 136 mM)	Papp at 4 h ([2]; PAMPA, donor pH ≈ 7.4, 4 h, 310 K, read-out: Papp of piperine, BBB PAMPA): 11.9 ×10⁻⁶ cm/s; permeability classification, BBB PAMPA ([2]; Papp > 4.0 × 10^−6 cm s^−1 = high permeability): well permeable; Papp at 3 h ([4]; donor pH ≈ 6.8, 3 h, 310 K, read-out: Papp of piperine, GIT PAMPA): 19 ×10⁻⁶ cm/s; increase of solubility of piperine [7]: about 16 folds
O=C1O[C@H]([C@@H](O)CO)C(O)=C1O [Vitamin C]																0.066 (≈ 0.375 mM)	
